From ChEMBL document CHEMBL5230109, “Recent advances in epigenetic proteolysis targeting chimeras (Epi-PROTACs)” (Eur J Med Chem, 2020) come the findings set out here.

Assay [1] addresses T1, von Hippel-Lindau disease tumor suppressor/Transcription intermediary factor 1-alpha (Homo sapiens, UniProt O15164+P40337). Kind of assay: PROTAC activity at TRIM24/VHL in human HEK293FT cells assessed as degradation protein at 5 uM measured after 24 hrs. Type of assay: cell-based.
Target sequence in this assay (O15164 whole entry, looked up): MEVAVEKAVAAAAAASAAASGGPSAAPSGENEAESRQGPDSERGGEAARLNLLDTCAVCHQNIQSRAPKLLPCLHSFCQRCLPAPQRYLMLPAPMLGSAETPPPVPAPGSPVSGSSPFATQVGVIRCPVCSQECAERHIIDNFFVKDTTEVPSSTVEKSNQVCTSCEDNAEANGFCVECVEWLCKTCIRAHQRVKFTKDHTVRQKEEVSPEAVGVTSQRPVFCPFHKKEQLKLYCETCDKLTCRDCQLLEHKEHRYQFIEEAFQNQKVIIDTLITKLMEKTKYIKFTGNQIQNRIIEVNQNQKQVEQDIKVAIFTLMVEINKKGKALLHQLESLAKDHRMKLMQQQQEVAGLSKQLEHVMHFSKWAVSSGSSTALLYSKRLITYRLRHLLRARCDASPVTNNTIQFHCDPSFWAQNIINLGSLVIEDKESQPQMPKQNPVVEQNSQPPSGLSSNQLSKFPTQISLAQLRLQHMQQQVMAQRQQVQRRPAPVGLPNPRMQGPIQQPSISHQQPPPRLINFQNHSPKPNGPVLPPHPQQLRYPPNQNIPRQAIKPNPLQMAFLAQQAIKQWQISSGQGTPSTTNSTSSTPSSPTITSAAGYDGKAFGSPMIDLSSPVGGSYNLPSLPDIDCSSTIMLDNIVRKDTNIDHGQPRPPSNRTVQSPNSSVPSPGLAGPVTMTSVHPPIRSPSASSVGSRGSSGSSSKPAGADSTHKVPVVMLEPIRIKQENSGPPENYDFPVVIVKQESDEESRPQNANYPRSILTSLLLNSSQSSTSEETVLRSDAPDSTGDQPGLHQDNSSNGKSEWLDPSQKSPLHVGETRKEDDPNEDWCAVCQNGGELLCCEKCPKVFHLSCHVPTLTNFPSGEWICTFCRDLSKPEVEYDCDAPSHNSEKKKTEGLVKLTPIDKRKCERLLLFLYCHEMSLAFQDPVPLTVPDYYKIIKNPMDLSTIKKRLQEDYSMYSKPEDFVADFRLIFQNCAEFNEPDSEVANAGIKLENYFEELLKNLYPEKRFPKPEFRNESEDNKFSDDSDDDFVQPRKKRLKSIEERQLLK
Target sequence in this assay (P40337 whole entry, looked up): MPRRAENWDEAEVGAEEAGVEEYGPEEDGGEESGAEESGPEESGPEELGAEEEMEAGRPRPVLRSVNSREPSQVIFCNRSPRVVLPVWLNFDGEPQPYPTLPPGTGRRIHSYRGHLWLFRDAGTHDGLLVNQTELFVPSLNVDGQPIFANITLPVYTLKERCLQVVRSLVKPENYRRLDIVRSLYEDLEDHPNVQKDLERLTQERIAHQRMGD
For assay [2], the target named is T1, von Hippel-Lindau disease tumor suppressor/Transcription intermediary factor 1-alpha. The assay is described as follows: PROTAC activity at TRIM24/VHL in human MOLM-13 cells assessed as degradation protein at 5 uM measured after 24 hrs. Type of assay: cell-based.
Target sequence in this assay (O15164 whole entry, looked up): as the sequence (O15164 whole entry, looked up) above
Target sequence in this assay (P40337 whole entry, looked up): as the sequence (P40337 whole entry, looked up) above
Assay [3] concerns the target T2, Protein cereblon/Protein deacetylase HDAC6 (Homo sapiens, UniProt Q96SW2+Q9UBN7). Kind of assay: PROTAC activity at HDAC6/CRBN in human MM.1S cells measured after 24 hrs. Type of assay: cell-based, MM1.S.
For assay [4], the target named is Histone-lysine N-methyltransferase EZH2 (Homo sapiens, UniProt Q15910). The assay is described as follows: Inhibition of EZH2 methyltransferase activity (unknown origin) assessed `transfer of [3H]methyl group from SAM to substrate by biochemical assay.
The next assay concerns the target Histone deacetylase 1 (Homo sapiens, UniProt Q13547). Kind of assay: Inhibition of human recombinant GST-tagged HDAC1 incubated for 20 mins by HDAC Glo assay.
In a further assay the target is Histone deacetylase 2 (Homo sapiens, UniProt Q92769). Kind of assay: Inhibition of human recombinant GST-tagged HDAC2 incubated for 20 mins by HDAC Glo assay.
The next assay deals with Histone deacetylase 3 (Homo sapiens, UniProt O15379). Kind of assay: Inhibition of human recombinant HDAC3 incubated for 20 mins by HDAC Glo assay.
Assay [5] deals with Protein deacetylase HDAC6 (Homo sapiens, UniProt Q9UBN7). The assay is described as follows: Inhibition of human recombinant GST-tagged HDAC6 incubated for 20 mins by HDAC Glo assay.
The next assay deals with Histone deacetylase 8 (Homo sapiens, UniProt Q9BY41). Kind of assay: Inhibition of human recombinant His-tagged HDAC8 incubated for 20 mins by HDAC Glo assay.
The target in assay [6] is Polyamine deacetylase HDAC10 (Homo sapiens, UniProt Q969S8). The assay is described as follows: Inhibition of human recombinant His-tagged HDAC10 incubated for 20 mins by HDAC Glo assay.
The target of assay [7] is T1, von Hippel-Lindau disease tumor suppressor/Transcription intermediary factor 1-alpha. Kind of assay: PROTAC activity at TRIM24/VHL (unknown origin) assessed as degradation protein. In kind it is protein assay.
Assay [8] concerns the target T3, Polycomb protein EED (Homo sapiens, UniProt O75530). Kind of assay: Binding affinity to PRC2 catalytic core EED (unknown origin) by surface plasmon resonance assay.
Assay [9] can be described thus: Inhibition of PRC2 catalytic core MTase activity (unknown origin) by MTase Glo assay. On the set-up: species or system Homo sapiens.
The subject of another assay is KARPAS-422. Kind of assay: Antiproliferative activity against human KARPAS-422 cells assessed as growth inhibition after 14 days by Cell Titer-Glo luminescent assay. In kind it is functional. Conditions: KARPAS-422, 336 h, time 14 day.
In assay [10] the target is T4, Bromodomain-containing protein 2 (Homo sapiens, UniProt P25440). Kind of assay: Binding affinity to BRD2 BD1 domain (unknown origin).
The target of assay [11] is T4, Bromodomain-containing protein 2. The assay is described as follows: Binding affinity to BRD2 BD2 domain (unknown origin).
The target in assay [12] is von Hippel-Lindau disease tumor suppressor/Bromodomain-containing protein 2 (Homo sapiens, UniProt P25440+P40337). Kind of assay: PROTAC activity at BRD2/VHL in human 22Rv1 cells assessed as protein degradation measured after 16 hrs. Type of assay: cell-based.
Assay [13] has as its target Histone-lysine N-methyltransferase EZH1 (Homo sapiens, UniProt Q92800). The assay is described as follows: Inhibition of EZH1 methyltransferase activity (unknown origin) assessed `transfer of [3H]methyl group from SAM to substrate by biochemical assay.
In assay [14] the target is T2, Protein cereblon/Protein deacetylase HDAC6. The assay is described as follows: PROTAC activity at HDAC6/CRBN in human MM.1S cells. Type of assay: cell-based, MM1.S.
The test system of another assay is MM1.S. The assay is described as follows: Growth inhibition of human MM1.S cells. In kind it is functional.
The target of assay [15] is von Hippel-Lindau disease tumor suppressor/Polycomb protein EED (Homo sapiens, UniProt O75530+P40337). Kind of assay: PROTAC activity at PRC2 catalytic core EED/VHL (unknown origin) measured after 24 hrs by Western blot analysis. Type of assay: protein assay.
Assay [16] has as its target von Hippel-Lindau disease tumor suppressor/Histone-lysine N-methyltransferase EZH2 (Homo sapiens, UniProt P40337+Q15910, Y641N). The assay is described as follows: PROTAC activity at PRC2 catalytic core EZH2/EZH2 Y641N mutant/VHL (unknown origin) measured after 24 hrs by Western blot analysis.
The target of assay [17] is von Hippel-Lindau disease tumor suppressor/Polycomb protein SUZ12 (Homo sapiens, UniProt P40337+Q15022). The assay is described as follows: PROTAC activity at PRC2 catalytic core SUZ12/VHL in human DLBCL cells measured after 24 hrs by Western blot analysis. Type of assay: cell-based.
Assay [18] has as its target T3, Polycomb protein EED. The assay is described as follows: Inhibition of PRC2 catalytic core EED (unknown origin).
For assay [19], the target named is T5, Bromodomain-containing protein 3 (Homo sapiens, UniProt Q15059). The assay is described as follows: Binding affinity to BRD3 BD1 domain (unknown origin).
In assay [20] the target is T5, Bromodomain-containing protein 3. Kind of assay: Binding affinity to BRD3 BD2 domain (unknown origin).
For assay [21], the target named is T6, Bromodomain-containing protein 4 (Homo sapiens, UniProt O60885). The assay is described as follows: Binding affinity to BRD4 BD1 domain (unknown origin).
The target of assay [22] is T6, Bromodomain-containing protein 4. Kind of assay: Binding affinity to BRD4 BD2 domain (unknown origin).
Assay [23] addresses T7, von Hippel-Lindau disease tumor suppressor/SWI/SNF-related matrix-associated actin-dependent regulator of chromatin subfamily A member 2 (Homo sapiens, UniProt P40337+P51531). The assay is described as follows: PROTAC activity at SMARCA2/VHL in human MV4-11 cells assessed as degradation protein measured after 18 hrs. In kind it is cell-based.
The target in assay [24] is von Hippel-Lindau disease tumor suppressor/SWI/SNF-related matrix-associated actin-dependent regulator of chromatin subfamily A member 4 (Homo sapiens, UniProt P40337+P51532). The assay is described as follows: PROTAC activity at SMARCA4/VHL in human MV4-11 cells assessed as degradation protein measured after 18 hrs. In kind it is cell-based.
Assay [25] has as its target T8, Protein polybromo-1/von Hippel-Lindau disease tumor suppressor (Homo sapiens, UniProt P40337+Q86U86). Kind of assay: PROTAC activity at PBRM1/VHL in human MV4-11 cells assessed as degradation protein measured after 18 hrs. In kind it is cell-based.
Assay [26] has as its target T7, von Hippel-Lindau disease tumor suppressor/SWI/SNF-related matrix-associated actin-dependent regulator of chromatin subfamily A member 2. The assay is described as follows: PROTAC activity at SMARCA2/VHL in human NCI-H1568 cells assessed as degradation protein measured after 18 hrs. Type of assay: cell-based.
For assay [27], the target named is T8, Protein polybromo-1/von Hippel-Lindau disease tumor suppressor. Kind of assay: PROTAC activity at PBRM1/VHL in human NCI-H1568 cells assessed as degradation protein measured after 18 hrs. Type of assay: cell-based.
Assay [28] concerns the target SWI/SNF-related matrix-associated actin-dependent regulator of chromatin subfamily A member 2 (Homo sapiens, UniProt P51531). The assay is described as follows: Inhibition of SMARCA2 BD (unknown origin).
The target of assay [29] is SWI/SNF-related matrix-associated actin-dependent regulator of chromatin subfamily A member 4 (Homo sapiens, UniProt P51532). Kind of assay: Inhibition of SMARCA4 BD (unknown origin).
A short description of assay [30]: Inhibition of […] BD5 (unknown origin). The arrangement: species or system Homo sapiens.
The next assay deals with MV4-11. Kind of assay: Antiproliferative activity against human MV4-11 cells measured after 7 days. Type of assay: functional, cell-based. Conditions: MV4-11, 168 h.
The test system of the next assay is SK-MEL-5. The assay is described as follows: Antiproliferative activity against human SK-MEL-5 cells measured after 7 days. Type of assay: functional, cell-based. Conditions: SK-MEL-5, 168 h.
Assay [31] is described as follows: Antiproliferative activity against human NCI-H1568 cells measured after 7 days. In kind it is functional, cell-based. The following applies: NCI-H1568, 168 h.

A value given as a limit tells only on which side of the number the result lay.

T3 sequence (O75530 whole entry): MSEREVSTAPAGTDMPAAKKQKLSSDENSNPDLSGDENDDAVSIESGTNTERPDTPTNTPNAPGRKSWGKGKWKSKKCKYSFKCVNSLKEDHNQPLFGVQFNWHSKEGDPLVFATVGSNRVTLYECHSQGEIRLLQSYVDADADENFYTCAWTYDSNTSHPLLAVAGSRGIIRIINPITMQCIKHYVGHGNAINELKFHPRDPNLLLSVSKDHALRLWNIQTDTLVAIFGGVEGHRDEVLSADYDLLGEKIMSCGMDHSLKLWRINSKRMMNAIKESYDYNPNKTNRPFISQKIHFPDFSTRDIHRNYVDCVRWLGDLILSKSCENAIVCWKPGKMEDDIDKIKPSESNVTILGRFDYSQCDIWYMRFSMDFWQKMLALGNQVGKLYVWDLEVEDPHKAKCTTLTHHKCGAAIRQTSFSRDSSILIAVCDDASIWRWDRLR
T4 sequence (P25440 whole entry, the tested form may be a part): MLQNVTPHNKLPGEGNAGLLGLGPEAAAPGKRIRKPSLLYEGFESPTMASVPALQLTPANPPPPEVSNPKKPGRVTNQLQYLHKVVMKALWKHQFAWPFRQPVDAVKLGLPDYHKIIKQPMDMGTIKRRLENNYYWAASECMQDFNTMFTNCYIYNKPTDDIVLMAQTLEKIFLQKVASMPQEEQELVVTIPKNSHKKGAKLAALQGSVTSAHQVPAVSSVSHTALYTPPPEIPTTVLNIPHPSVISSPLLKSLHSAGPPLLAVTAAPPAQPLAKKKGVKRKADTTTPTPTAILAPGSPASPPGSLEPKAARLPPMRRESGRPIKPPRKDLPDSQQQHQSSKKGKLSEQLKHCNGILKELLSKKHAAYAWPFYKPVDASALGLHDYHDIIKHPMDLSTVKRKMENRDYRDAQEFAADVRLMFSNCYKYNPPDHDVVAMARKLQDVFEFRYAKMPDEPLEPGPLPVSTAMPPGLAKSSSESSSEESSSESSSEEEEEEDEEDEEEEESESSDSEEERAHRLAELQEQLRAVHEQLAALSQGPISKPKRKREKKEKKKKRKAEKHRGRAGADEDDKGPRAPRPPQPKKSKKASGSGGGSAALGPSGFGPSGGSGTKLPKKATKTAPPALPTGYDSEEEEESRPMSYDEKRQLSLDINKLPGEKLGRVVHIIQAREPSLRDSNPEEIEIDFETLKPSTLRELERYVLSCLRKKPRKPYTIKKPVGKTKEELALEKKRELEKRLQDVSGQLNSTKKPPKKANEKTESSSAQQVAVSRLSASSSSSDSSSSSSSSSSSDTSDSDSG
T5 sequence (Q15059 whole entry, the tested form may be a part): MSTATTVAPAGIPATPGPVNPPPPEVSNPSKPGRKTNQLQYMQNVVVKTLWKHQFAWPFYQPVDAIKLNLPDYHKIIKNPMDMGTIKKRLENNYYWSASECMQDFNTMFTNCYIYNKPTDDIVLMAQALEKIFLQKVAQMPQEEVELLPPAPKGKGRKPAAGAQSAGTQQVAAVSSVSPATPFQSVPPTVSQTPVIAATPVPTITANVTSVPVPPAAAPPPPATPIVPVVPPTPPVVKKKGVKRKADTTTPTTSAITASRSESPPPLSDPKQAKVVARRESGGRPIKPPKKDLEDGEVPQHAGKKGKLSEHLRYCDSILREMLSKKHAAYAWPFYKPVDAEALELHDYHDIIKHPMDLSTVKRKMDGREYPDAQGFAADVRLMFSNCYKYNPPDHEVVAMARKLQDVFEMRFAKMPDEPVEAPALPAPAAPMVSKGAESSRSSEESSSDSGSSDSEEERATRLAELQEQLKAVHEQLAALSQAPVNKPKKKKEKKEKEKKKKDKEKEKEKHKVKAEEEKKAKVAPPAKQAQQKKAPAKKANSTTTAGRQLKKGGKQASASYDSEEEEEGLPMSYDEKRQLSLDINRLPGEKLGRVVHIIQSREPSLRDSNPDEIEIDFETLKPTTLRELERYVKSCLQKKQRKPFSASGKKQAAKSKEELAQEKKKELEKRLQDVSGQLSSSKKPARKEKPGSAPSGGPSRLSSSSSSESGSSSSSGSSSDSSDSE
T8 sequence (Q86U86 whole entry): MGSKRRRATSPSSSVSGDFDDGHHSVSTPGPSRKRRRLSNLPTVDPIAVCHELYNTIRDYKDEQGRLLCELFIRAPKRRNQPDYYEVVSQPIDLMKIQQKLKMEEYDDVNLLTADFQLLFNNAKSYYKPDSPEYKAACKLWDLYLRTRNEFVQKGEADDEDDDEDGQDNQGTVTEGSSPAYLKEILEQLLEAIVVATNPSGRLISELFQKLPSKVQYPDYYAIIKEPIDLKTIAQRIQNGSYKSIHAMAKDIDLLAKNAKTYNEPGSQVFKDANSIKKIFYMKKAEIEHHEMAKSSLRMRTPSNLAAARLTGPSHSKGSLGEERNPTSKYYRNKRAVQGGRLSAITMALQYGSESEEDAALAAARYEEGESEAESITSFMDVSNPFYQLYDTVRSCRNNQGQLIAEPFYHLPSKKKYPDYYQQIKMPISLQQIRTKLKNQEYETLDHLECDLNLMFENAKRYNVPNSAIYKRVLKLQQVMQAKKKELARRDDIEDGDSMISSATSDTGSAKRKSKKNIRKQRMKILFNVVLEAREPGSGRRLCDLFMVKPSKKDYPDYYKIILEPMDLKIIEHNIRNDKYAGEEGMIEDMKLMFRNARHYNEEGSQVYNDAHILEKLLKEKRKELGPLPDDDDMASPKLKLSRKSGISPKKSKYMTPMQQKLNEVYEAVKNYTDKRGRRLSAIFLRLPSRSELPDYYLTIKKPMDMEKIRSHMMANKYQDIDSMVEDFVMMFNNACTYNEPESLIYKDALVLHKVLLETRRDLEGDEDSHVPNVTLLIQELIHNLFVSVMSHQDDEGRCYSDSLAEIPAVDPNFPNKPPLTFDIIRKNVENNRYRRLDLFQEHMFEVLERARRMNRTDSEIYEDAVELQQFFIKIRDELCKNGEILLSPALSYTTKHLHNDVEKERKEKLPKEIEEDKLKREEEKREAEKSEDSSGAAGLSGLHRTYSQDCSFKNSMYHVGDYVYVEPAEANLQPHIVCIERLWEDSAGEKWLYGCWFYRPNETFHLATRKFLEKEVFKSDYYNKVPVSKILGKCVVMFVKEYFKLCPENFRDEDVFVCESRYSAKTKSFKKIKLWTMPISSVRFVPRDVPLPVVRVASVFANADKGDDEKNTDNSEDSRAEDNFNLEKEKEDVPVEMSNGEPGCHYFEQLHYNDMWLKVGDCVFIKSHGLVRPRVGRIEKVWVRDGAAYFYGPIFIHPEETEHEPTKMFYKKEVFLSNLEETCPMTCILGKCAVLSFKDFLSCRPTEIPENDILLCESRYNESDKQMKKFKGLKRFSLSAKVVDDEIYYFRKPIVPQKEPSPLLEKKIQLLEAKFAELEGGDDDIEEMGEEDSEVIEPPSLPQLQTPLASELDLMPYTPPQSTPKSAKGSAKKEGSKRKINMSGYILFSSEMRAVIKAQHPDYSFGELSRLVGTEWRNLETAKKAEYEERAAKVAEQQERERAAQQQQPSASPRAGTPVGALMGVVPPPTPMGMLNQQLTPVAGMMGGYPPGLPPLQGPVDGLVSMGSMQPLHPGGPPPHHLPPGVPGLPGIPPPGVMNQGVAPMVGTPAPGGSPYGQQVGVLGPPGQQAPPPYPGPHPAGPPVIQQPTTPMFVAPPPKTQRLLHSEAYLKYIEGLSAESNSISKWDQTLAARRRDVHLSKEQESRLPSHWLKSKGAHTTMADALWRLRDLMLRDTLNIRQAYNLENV
T8 sequence (P40337 whole entry): as the sequence (P40337 whole entry, looked up) above

`CCCOc1cccc(Oc2cc3c(cc2NS(=O)(=O)c2cccc(C(=O)NCCOCCOCCOCC(=O)N[C@H](C(=O)N4C[C@H](O)C[C@H]4C(=O)NCc4ccc(-c5scnc5C)cc4)C(C)(C)C)c2)n(C)c(=O)n3C)c1`: the Activity in assay [1] and in assay [2] was 72% in each case.
For `CCCCN(Cc1ccc(C(=O)NO)cc1)C(=O)Nc1ccc(NC(=O)CCCc2cn(CCOCCNc3cccc4c3C(=O)N(C3CCC(=O)NC3=O)C4=O)nn2)cc1` (stereo unspecified), the EC50 in [3] came out at 3.2 nM.
`Cc1cc(C)c(CNC(=O)c2cc(-c3ccc(N4CCN(CCNC(=O)CC56CC7CC(CC(C7)C5)C6)CC4)nc3)cc3c2cnn3C(C)C)c(=O)[nH]1` returned an IC50 in [4] of 120 nM.
In the case of `COc1ccc(/C=N/NC(=O)CCCCCCCC(=O)NO)cc1`, the IC50 amounted to 2.28 nM on Histone deacetylase 1; 3.12 nM at Histone deacetylase 2; 1.82 nM at Histone deacetylase 3; 35.8 nM in assay [5]; 60.3 nM at Histone deacetylase 8; 11.1 nM in [6].
As to `CCCOc1cccc(Oc2cc3c(cc2NS(=O)(=O)c2ccc(OC)c(OC)c2)n(C)c(=O)n3C)c1`, the IC50 in [7] came to 43 nM.
Take `Cc1nc(CCC(=O)NCCCCC(=O)N[C@@H](C(=O)N2C[C@H](O)C[C@H]2C(=O)NCc2ccc(-c3scnc3C)cc2)C(C)(C)C)ccc1-c1cnc(NCc2c(F)ccc3c2CCO3)n2cnnc12`: binding at Polycomb protein EED [8] was put at a Kd of 0.537 nM. The pIC50 in assay [9] came to 8.11. In addition, the GI50 with KARPAS-422 is 57 nM.
Consider `Cc1ncsc1-c1ccc([C@H](C)NC(=O)[C@@H]2C[C@@H](O)CN2C(=O)C(NC(=O)COCCCOCCNC(=O)C[C@@H]2N=C(c3ccc(Cl)cc3)c3c(sc(C)c3C)-n3c(C)nnc32)C(C)(C)C)cc1` (single isomer, unassigned), for which the Kd in assay [10] was 34 nM; in assay [11], 4.7 nM. In addition, in assay [12], the EC50 was less than 5 nM.
Consider `CNC(=O)CCc1ccc(-c2cnc(NCc3c(F)ccc4c3CCO4)n3cnnc23)c(C)n1`, for which the Kd at Polycomb protein EED [8] is 0.245 nM. Besides, the pIC50 in assay [9] is on record as 8.43.
With `Cc1cc(C)c(CNC(=O)c2cc(-c3ccc(N4CCN(C(C)C)CC4)nc3)cc3c2cnn3C(C)C)c(=O)[nH]1`, in assay [13], the IC50 was greater than 2500 nM.
In the case of `O=C1CCC(N2C(=O)c3cccc(NCCOCCOCCn4cc(CCCCN(Cc5ccc(C(=O)NO)cc5)C(=O)Nc5ccccc5)nn4)c3C2=O)C(=O)N1` (stereo unspecified), in assay [14], the EC50 was found to be 3.8 nM. The GI50 with MM1.S came to 1210 nM.
For `Cc1ncsc1-c1ccc(CNC(=O)[C@@H]2C[C@@H](O)CN2C(=O)[C@@H](NC(=O)CCCNC(=O)c2ccc(-c3cnc(NCc4ccco4)n4cnnc34)cc2)C(C)(C)C)cc1`, the EC50 is 610 nM in assay [15], 300 nM in assay [16] and 590 nM in [17]. This compound also came in with an IC50 against Polycomb protein EED [18] of 247 nM.
On Polycomb protein EED [8], `Cc1nc(CCC(=O)NCCOc2ccc(OCC(=O)N[C@@H](C(=O)N3C[C@H](O)C[C@H]3C(=O)NCc3ccc(-c4scnc4C)cc3)C(C)(C)C)cc2)ccc1-c1cnc(NCc2c(F)ccc3c2CCO3)n2cnnc12` showed a Kd of 0.955 nM. In addition, the pIC50 in assay [9] stood at 8.17. Further, the GI50 with KARPAS-422 turned out to be 45 nM.
As to `CC(=O)N[C@H](C(=O)N1C[C@H](O)C[C@H]1C(=O)NCc1ccc(-c2scnc2C)cc1)C(C)(C)SCCCCCNC(=O)C[C@@H]1N=C(c2ccc(Cl)cc2)c2c(sc(C)c2C)-n2c(C)nnc21`, the Kd in assay [10] was found to be 111 nM; in assay [11], 94 nM; in [19] it was 35 nM; in [20] it was 39 nM; in [21], 75 nM; in [22], 44 nM.
Regarding `Cc1ncsc1-c1ccc(CNC(=O)[C@H]2C[C@H](O)CN2C(=O)[C@H](NC(=O)C2(F)CC2)C(C)(C)C)c(OCCOc2ccc(CN3CCN(c4cc(-c5ccccc5O)nnc4N)CC3)cc2)c1`, the EC50 in [23] worked out at 6 nM; in [24], 11 nM; in [25], 32 nM; in [26], 3.3 nM; in assay [27], 15.6 nM. For the same compound, the IC50 in assay [28] came out at 770 nM; in assay [29], 560 nM; in [30], 504 nM; with MV4-11 it was 28 nM; in the assay on SK-MEL-5, 77 nM; in [31], 68 nM.
